Test results reported in ChEMBL document CHEMBL3407456, “Glycosylated enfuvirtide: a long-lasting glycopeptide with potent anti-HIV activity” (J Med Chem, 2015).

Tests used:
[1] = Plasma concentration in Sprague-Dawley rat at […], sc after 6 hrs; type: ADME, organism-based
[2] = molecular target: GP41 (Human immunodeficiency virus 1) (UniProt Q76270); assay: Binding affinity to HIV1 gp41 (46 residues) assessed as effect on protein secondary structure measured as alpha-helicity in PBS buffer at pH 7.2 by circular dichroism assay (reference value: 117 %)
[3] = tested on: Human immunodeficiency virus 1; assay: Antiviral activity against HIV-1 SF33 infected in TZM-bl cells after 2 days by luciferase reporter gene assay; type: functional, organism-based; conditions: Human immunodeficiency virus 1, SF33, TZM-bl, 48 h
[4] = Cytotoxicity against human TZM-bl cells assessed as reduction cell viability at <12.5 uM after 2 days by XTT assay; type: cell-based; conditions: 48 h
[5] = Half life in Sprague-Dawley rat at […], sc after 6 hrs; type: ADME, organism-based; conditions: in vivo
[6] = molecular target: GP41 (Human immunodeficiency virus 1, UniProt Q76270); assay: Binding affinity to HIV1 gp41 (46 residues) by surface plasmon resonance method

## enfuvirtide
[1]
  concentration at 6 h: < 1000 nM
[2]
  Activity: 67%
[3]
  EC50: 3 nM
  EC90: 23 nM
[4]
  Activity: Non-toxic
[5]
  half-life at 6 h: 1.5 h
[6]
  Kd: 182 nM
